{"source": "PubChem BioAssay (NCI)", "experiment_in_all_cases": "DTP human tumour cell line panel, 48 h", "key": {"[1]": {"tested_on": "DU-145 prostate"}, "[2]": {"tested_on": "EKVX NSCLC"}, "[3]": {"tested_on": "BT-549 breast"}, "[4]": {"tested_on": "T-47D breast"}, "[5]": {"tested_on": "COLO 205 colon"}, "[6]": {"tested_on": "MOLT-4 leukemia"}, "[7]": {"tested_on": "UACC-62 melanoma"}, "[8]": {"tested_on": "TK-10 renal"}, "[9]": {"tested_on": "NCI-H23 lung"}, "[10]": {"tested_on": "MCF7 breast"}, "[11]": {"tested_on": "RXF 393 renal"}, "[12]": {"tested_on": "MALME-3M melanoma"}, "[13]": {"tested_on": "OVCAR-8 ovarian"}, "[14]": {"tested_on": "HCT-15 colon"}, "[15]": {"tested_on": "SK-MEL-28 melanoma"}, "[16]": {"tested_on": "HOP-62 NSCLC"}, "[17]": {"tested_on": "HCT-116 colon"}, "[18]": {"tested_on": "SW-620 colon"}, "[19]": {"tested_on": "HOP-92 NSCLC"}, "[20]": {"tested_on": "OVCAR-3 ovarian"}, "[21]": {"tested_on": "ACHN renal"}, "[22]": {"tested_on": "PC-3 prostate"}, "[23]": {"tested_on": "RPMI-8226 leukemia"}, "[24]": {"tested_on": "SF-295 CNS"}, "[25]": {"tested_on": "SF-268 CNS"}, "[26]": {"tested_on": "SK-MEL-2 melanoma"}, "[27]": {"tested_on": "U251 CNS"}, "[28]": {"tested_on": "SNB-19 CNS"}}, "note": "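In this assay, cells in 96-well plates receive the compound at five concentrations for 48 hours. Endpoints are linearly interpolated between the surrounding concentrations. The concentration for 50% growth inhibition is given as GI50. TGI is the concentration that stops growth completely.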"}
{"smiles": "COc1ccc(-c2cc(-c3nnc(SCC(=O)Nc4ccc(C(C)=O)cc4)o3)c3ccccc3n2)cc1", "values": [{"measurement": "GI50", "setting": "[1]", "result": "> 100", "unit": "µM"}, {"measurement": "TGI", "setting": "[1]", "result": "> 100", "unit": "µM"}, {"measurement": "GI50", "setting": "[2]", "result": "> 100", "unit": "µM"}, {"measurement": "TGI", "setting": "[2]", "result": "> 100", "unit": "µM"}, {"measurement": "GI50", "setting": "[3]", "result": 8.77, "unit": "µM"}, {"measurement": "TGI", "setting": "[3]", "result": "> 100", "unit": "µM"}, {"measurement": "GI50", "setting": "[4]", "result": "> 100", "unit": "µM"}, {"measurement": "TGI", "setting": "[4]", "result": "> 100", "unit": "µM"}, {"measurement": "GI50", "setting": "[5]", "result": "> 100", "unit": "µM"}, {"measurement": "TGI", "setting": "[5]", "result": "> 100", "unit": "µM"}, {"measurement": "GI50", "setting": "[6]", "result": "> 100", "unit": "µM"}, {"measurement": "TGI", "setting": "[6]", "result": "> 100", "unit": "µM"}, {"measurement": "GI50", "setting": "[7]", "result": 27.1, "unit": "µM"}, {"measurement": "TGI", "setting": "[7]", "result": "> 100", "unit": "µM"}, {"measurement": "GI50", "setting": "[8]", "result": 28.7, "unit": "µM"}, {"measurement": "TGI", "setting": "[8]", "result": 78.6, "unit": "µM"}, {"measurement": "GI50", "setting": "[9]", "result": 25.4, "unit": "µM"}, {"measurement": "TGI", "setting": "[9]", "result": "> 100", "unit": "µM"}, {"measurement": "GI50", "setting": "[10]", "result": "> 100", "unit": "µM"}, {"measurement": "TGI", "setting": "[10]", "result": "> 100", "unit": "µM"}, {"measurement": "GI50", "setting": "[11]", "result": 18.1, "unit": "µM"}, {"measurement": "TGI", "setting": "[11]", "result": 57.5, "unit": "µM"}, {"measurement": "GI50", "setting": "[12]", "result": 10.6, "unit": "µM"}, {"measurement": "TGI", "setting": "[12]", "result": 91.8, "unit": "µM"}, {"measurement": "GI50", "setting": "[13]", "result": 48.9, "unit": "µM"}, {"measurement": "TGI", "setting": "[13]", "result": "> 100", "unit": "µM"}, {"measurement": "GI50", "setting": "[14]", "result": "> 100", "unit": "µM"}, {"measurement": "TGI", "setting": "[14]", "result": "> 100", "unit": "µM"}, {"measurement": "GI50", "setting": "[15]", "result": "> 100", "unit": "µM"}, {"measurement": "TGI", "setting": "[15]", "result": "> 100", "unit": "µM"}, {"measurement": "GI50", "setting": "[16]", "result": 15.7, "unit": "µM"}, {"measurement": "TGI", "setting": "[16]", "result": 58.6, "unit": "µM"}, {"measurement": "GI50", "setting": "[17]", "result": 2.9, "unit": "µM"}, {"measurement": "TGI", "setting": "[17]", "result": "> 100", "unit": "µM"}, {"measurement": "GI50", "setting": "[18]", "result": "> 100", "unit": "µM"}, {"measurement": "TGI", "setting": "[18]", "result": "> 100", "unit": "µM"}, {"measurement": "GI50", "setting": "[19]", "result": 9.1, "unit": "µM"}, {"measurement": "TGI", "setting": "[19]", "result": 37.5, "unit": "µM"}, {"measurement": "GI50", "setting": "[20]", "result": 62.6, "unit": "µM"}, {"measurement": "TGI", "setting": "[20]", "result": "> 100", "unit": "µM"}, {"measurement": "GI50", "setting": "[21]", "result": 5.64, "unit": "µM"}, {"measurement": "TGI", "setting": "[21]", "result": 31.7, "unit": "µM"}, {"measurement": "GI50", "setting": "[22]", "result": "> 100", "unit": "µM"}, {"measurement": "TGI", "setting": "[22]", "result": "> 100", "unit": "µM"}, {"measurement": "GI50", "setting": "[23]", "result": "> 100", "unit": "µM"}, {"measurement": "TGI", "setting": "[23]", "result": "> 100", "unit": "µM"}, {"measurement": "GI50", "setting": "[24]", "result": 26.4, "unit": "µM"}, {"measurement": "TGI", "setting": "[24]", "result": "> 100", "unit": "µM"}, {"measurement": "GI50", "setting": "[25]", "result": 29.1, "unit": "µM"}, {"measurement": "TGI", "setting": "[25]", "result": "> 100", "unit": "µM"}, {"measurement": "GI50", "setting": "[26]", "result": 30.4, "unit": "µM"}, {"measurement": "TGI", "setting": "[26]", "result": "> 100", "unit": "µM"}, {"measurement": "GI50", "setting": "[27]", "result": 10.2, "unit": "µM"}, {"measurement": "TGI", "setting": "[27]", "result": 55.9, "unit": "µM"}, {"measurement": "GI50", "setting": "[28]", "result": 12.6, "unit": "µM"}]}
